Assay results taken from ChEMBL document CHEMBL2413011, “One-pot tandem Hurtley-retro-Claisen-cyclisation reactions in the synthesis of 3-substituted analogues of 5-aminoisoquinolin-1-one (5-AIQ), a water-soluble inhibitor of PARPs” (Bioorg Med Chem, 2013).

Tests used:
[1] = Solubility of the compound in water; type: physicochemical
[2] = molecular target: Poly [ADP-ribose] polymerase 2 (Mus musculus, UniProt O88554); assay: Inhibition of mouse PARP-2
[3] = molecular target: Poly [ADP-ribose] polymerase 1 (Bos taurus, UniProt P18493); assay: Inhibition of calf thymus PARP-1
Poly [ADP-ribose] polymerase 1 (Bos taurus, UniProt P18493), sequence (P18493 whole entry): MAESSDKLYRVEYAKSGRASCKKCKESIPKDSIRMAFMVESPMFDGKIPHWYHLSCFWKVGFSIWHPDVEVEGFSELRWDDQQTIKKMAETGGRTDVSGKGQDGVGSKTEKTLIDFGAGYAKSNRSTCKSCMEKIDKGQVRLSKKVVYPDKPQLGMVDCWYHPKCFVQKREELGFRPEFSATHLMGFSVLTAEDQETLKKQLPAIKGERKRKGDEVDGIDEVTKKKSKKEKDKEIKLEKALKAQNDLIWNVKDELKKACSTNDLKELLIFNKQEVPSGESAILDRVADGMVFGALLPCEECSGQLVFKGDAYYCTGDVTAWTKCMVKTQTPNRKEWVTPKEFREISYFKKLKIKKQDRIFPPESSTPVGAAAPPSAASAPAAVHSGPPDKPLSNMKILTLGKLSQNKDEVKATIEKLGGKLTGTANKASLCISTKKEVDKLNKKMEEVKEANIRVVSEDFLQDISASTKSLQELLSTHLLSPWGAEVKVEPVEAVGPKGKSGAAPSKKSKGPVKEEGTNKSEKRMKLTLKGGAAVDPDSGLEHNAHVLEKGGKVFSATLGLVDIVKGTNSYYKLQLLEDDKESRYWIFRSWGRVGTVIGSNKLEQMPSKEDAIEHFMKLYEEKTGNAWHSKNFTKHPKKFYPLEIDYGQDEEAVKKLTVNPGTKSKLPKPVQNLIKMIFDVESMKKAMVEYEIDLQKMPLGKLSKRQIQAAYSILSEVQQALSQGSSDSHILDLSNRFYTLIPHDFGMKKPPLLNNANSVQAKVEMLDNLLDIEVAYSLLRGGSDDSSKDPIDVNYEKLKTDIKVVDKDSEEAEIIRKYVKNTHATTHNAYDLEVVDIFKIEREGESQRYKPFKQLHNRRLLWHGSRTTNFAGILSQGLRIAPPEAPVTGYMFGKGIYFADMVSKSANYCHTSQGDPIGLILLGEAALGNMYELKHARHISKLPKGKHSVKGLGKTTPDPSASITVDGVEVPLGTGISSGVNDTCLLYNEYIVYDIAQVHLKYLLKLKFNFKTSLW

[4] = molecular target: T1, Poly [ADP-ribose] polymerase 1 (Homo sapiens, UniProt P09874); assay: Inhibition of PARP-1 (unknown origin) in broken nuclear preparation
T1 sequence (P09874 whole entry): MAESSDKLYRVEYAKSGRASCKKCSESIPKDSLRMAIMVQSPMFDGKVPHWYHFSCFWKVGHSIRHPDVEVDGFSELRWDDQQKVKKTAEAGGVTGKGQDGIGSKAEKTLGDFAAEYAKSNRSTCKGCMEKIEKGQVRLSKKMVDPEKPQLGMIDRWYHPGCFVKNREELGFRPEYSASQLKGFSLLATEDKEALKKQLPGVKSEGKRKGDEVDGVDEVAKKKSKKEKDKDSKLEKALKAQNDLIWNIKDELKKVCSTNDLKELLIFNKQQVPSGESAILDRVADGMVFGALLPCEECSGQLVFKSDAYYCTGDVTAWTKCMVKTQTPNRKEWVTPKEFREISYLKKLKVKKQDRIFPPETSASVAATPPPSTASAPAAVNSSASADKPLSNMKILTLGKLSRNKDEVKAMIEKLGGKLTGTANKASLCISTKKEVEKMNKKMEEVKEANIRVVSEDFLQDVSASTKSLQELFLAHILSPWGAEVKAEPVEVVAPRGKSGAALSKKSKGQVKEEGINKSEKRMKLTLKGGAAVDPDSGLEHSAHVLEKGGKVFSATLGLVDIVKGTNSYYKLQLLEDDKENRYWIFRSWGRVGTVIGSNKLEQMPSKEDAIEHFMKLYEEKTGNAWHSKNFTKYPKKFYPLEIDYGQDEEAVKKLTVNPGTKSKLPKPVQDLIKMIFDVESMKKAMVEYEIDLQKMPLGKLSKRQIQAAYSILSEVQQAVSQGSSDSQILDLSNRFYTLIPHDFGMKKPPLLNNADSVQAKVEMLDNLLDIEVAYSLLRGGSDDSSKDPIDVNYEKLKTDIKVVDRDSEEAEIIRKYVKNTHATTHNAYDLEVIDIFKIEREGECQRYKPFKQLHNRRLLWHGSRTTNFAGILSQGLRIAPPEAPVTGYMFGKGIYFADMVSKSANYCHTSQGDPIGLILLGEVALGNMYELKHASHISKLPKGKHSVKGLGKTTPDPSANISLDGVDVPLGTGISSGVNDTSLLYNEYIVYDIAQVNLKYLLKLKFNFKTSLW

[5] = molecular target: T1, Poly [ADP-ribose] polymerase 1; assay: Inhibition of human PARP-1 assessed as synthesis of [3H]-ADP-ribose polymers from [3H]-NAD+ by scintillation proximity assay

Poly [ADP-ribose] polymerase 2, sequence (O88554 whole entry): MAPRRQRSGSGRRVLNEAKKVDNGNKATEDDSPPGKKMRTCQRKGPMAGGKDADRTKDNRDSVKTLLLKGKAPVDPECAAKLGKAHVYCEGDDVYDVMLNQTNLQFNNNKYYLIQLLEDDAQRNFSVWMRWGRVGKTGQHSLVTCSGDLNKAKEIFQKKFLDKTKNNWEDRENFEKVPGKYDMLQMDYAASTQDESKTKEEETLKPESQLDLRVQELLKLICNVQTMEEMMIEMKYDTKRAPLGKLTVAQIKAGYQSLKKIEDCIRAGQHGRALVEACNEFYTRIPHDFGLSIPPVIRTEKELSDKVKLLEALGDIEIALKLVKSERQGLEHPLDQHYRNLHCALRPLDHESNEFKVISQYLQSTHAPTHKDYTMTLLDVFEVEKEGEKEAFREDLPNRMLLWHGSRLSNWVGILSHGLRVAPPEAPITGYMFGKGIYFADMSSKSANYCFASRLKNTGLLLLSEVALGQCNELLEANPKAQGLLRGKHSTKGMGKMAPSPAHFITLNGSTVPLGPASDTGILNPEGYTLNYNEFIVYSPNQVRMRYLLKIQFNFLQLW

Structure (SMILES)	solubility [1]	IC50 [2]	also measured
Cl.Nc1cccc2c(=O)[nH]c(Cc3ccccc3)cc12	> 30 mM	–	–
CC(C)Cc1cc2c(N)cccc2c(=O)[nH]1.Cl	> 30 mM	–	–
Nc1cccc2c(=O)[nH]c(-c3ccc(C(F)(F)F)cc3)cc12	–	170 nM	–
Cc1cc2c(N)cccc2c(=O)[nH]1.Cl	> 30 mM	–	–
Cl.Nc1cccc2c(=O)[nH]c(-c3ccc(Cl)cc3)cc12	> 30 mM	–	–
CCc1cc2c(N)cccc2c(=O)[nH]1	–	830 nM	–
CCc1cc2c(N)cccc2c(=O)[nH]1.Cl	> 30 mM	–	–
Cl.Nc1cccc2c(=O)[nH]c(-c3ccccc3)cc12	> 30 mM	–	–
Cc1ccc(-c2cc3c(N)cccc3c(=O)[nH]2)cc1	–	120 nM	–
Nc1cccc2c(=O)[nH]ccc12	–	–	IC50 [3]: 250 nM; IC50 [4]: 300 nM; IC50 [5]: 1600 nM

Further lines, with some results ahead:

solubility [1]	IC50 [2]	Structure (SMILES)	also measured
> 30 mM	–	Cl.Nc1cccc2c(=O)[nH]c(-c3cccs3)cc12	–
> 30 mM	–	Cl.Nc1cccc2c(=O)[nH]c(-c3ccc(C(F)(F)F)cc3)cc12	–
–	160 nM	Nc1cccc2c(=O)[nH]c(-c3ccc(Cl)cc3)cc12	–
> 30 mM	–	COc1ccc(-c2cc3c(N)cccc3c(=O)[nH]2)cc1.Cl	–
> 30 mM	–	CCCCCc1cc2c(N)cccc2c(=O)[nH]1.Cl	–
> 30 mM	–	Cc1ccc(-c2cc3c(N)cccc3c(=O)[nH]2)cc1.Cl	–
–	260 nM	Cc1cc2c(N)cccc2c(=O)[nH]1	–
–	480 nM	Nc1cccc2c(=O)[nH]c(-c3ccccc3)cc12	–
–	730 nM	COc1ccc(-c2cc3c(N)cccc3c(=O)[nH]2)cc1	–
